Read-outs that look alike come from different tables or passages of the source.
Target: T1, Enzyme I C-terminal domain (tEIC) (Caldanaerobacter subterraneus, UniProt Q8R7R4)
T1 construct: gene PtsA; EIC, C-terminal domain (residues 261–575)
Assay: 1H-15N TROSY NMR chemical shift perturbation titration
Type: binding
Excerpt: 1H-15N TROSY NMR chemical shift perturbation titration on Enzyme I C-terminal domain (tEIC) | both cPEP and SEP induce significant CSPs on the spectra of tEIC localized in the vicinity of the PEP binding site | SEP is particularly interesting as it binds to the thermophilic enzyme with a KD similar to the physiological substrate

T1 sequence (Q8R7R4 250-573): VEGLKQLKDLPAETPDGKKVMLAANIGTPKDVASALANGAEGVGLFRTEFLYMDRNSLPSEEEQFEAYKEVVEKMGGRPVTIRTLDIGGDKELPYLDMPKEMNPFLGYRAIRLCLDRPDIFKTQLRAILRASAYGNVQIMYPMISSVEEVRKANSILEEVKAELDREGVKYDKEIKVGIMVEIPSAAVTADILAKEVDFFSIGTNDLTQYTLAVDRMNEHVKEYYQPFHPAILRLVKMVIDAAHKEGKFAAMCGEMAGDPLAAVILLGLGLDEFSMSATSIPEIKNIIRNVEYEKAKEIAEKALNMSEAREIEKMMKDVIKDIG

## C=C(OS(=O)(=O)O)C(=O)O [SEP, sulfoenolpyruvate]
read-out: Kd
  Kd: 600 µM

## C=C(CP(=O)(O)O)C(=O)O [cPEP, allylicphosphonate]
  Kd: 2800 µM
